≈ marks a conversion by molar mass, not a printed value. Entries after “also recorded” stand apart in the source; their conditions may differ.
Key:
Kinetic solubility assay = assay type: physicochemical; conditions: PBS (pH 7.4)
Procedure: Kinetic aqueous solubility determination for compound (±)-44 in PBS (pH 7.4) was conducted by Eurofins using UV detection (230 nm). […] In addition, chromatographic purity (%) was defined as the peak area of the principal peak relative to the total integrated peak area in the HPLC chromatogram of the calibration standard. A chromatogram of the calibration standard of each test compound, along with a UV/VIS spectrum with labeled absorbance maxima, was generated.

serum RBP4 = serum RBP4 (Mus musculus (Mouse), UniProt Q00724); experiment: Serum RBP4 after long-term oral dosing in Abca4−/−/Rdh8−/− mice; assay type: in vivo; conditions: 25 mg/kg daily in chow
Procedure: FIG. 9. Effect of the long-term oral (±)-44 administration in Abca4^−/−/Rdh8^−/− mice on serum RBP4 levels. Serum RBP4 levels were measured in vehicle-treated Abca4^−/−/Rdh8^−/− mice (squares) and (±)-44-treated Abca4^−/−/Rdh8^−/− mice (triangles) at the indicated time points. […] Error bars show S.D. Each data point on the graph represents a serum RBP4 concentration from an individual animal.
Blood samples were collected from a tail vein. Whole blood was drawn into a centrifuge tube and was allowed to clot at room temperature for 30 minutes followed by centrifugation at 2000 g for 15 minutes at […] to collect serum. Aliquots of plasma samples collected in the mouse pharmacokinetic study were analyzed for the RBP4 concentration using the RBP4 (mouse/rat) dual ELISA kit (AdipoGen, San Diego, CA) following the manufacturer's instructions. In adi-hRBP4 transgenic mouse experiments, blood samples were collected from a tail vein. […] Mouse serum RBP4 (produced predominantly in the liver) was measured using the RBP4 (mouse/rat) dual ELISA kit (AdipoGen, San Diego, CA; catalog number AG-45A-0012YTP-KI01)
(±)-44 was formulated into a Picolab 5053 chow to ensure a daily dosing of 25 mg/kg of (±)-44. […] Following the 10 weeks of dosing, the eyecups of treated and untreated Abca4^−/−/Rdh8^−/− mice as well as the eyecups of the reference wild type mice were collected for the quantitative A2E analysis.

[1] = Metabolic stability and clearance in mouse liver microsomes; assay type: in vitro ADME; conditions: 30 minute incubation
Procedure: (§1) The results of metabolic stability determinations for novel compounds and testosterone (positive control) were conducted in the presence of human, rat, mouse, and monkey liver microsomes. Values shown are percent of parent remaining after a 30 minute incubation. All measurements were done in duplicate. Assay results for testosterone were within an acceptable range.
(§2) Mixed-gender human liver microsomes (Lot #1710084), male Sprague-Dawley rat liver microsomes (Lot #1610290), male CD-1 mouse liver microsomes (Lot #1710069), and male Cynomolgous liver microsomes (Lot #1510193) were purchased from XenoTech. The reaction mixture, minus NADPH, was prepared as described below. The test article was added into the reaction mixture at a final concentration of 1 μM. The control compound, testosterone, was run simultaneously with the test article in a separate reaction. An aliquot of the reaction mixture (without cofactor) was equilibrated in a shaking water bath at 37° C. for 3 minutes. The reaction was initiated by the addition of cofactor, and the mixture was incubated in a shaking water bath at 37° C. Aliquots (100 μL) were withdrawn at 0, 10, 20, 30, and 60. […] Half-lives were calculated using GraphPad software, fitting to a single-phase exponential decay equation.

hERG = hERG (Homo sapiens (Human), UniProt Q12809); experiment: CiPA hERG QPatch Assay; assay type: cell-based; conditions: five-point concentration-response, n = 2
Sequence of hERG (Q12809 whole entry): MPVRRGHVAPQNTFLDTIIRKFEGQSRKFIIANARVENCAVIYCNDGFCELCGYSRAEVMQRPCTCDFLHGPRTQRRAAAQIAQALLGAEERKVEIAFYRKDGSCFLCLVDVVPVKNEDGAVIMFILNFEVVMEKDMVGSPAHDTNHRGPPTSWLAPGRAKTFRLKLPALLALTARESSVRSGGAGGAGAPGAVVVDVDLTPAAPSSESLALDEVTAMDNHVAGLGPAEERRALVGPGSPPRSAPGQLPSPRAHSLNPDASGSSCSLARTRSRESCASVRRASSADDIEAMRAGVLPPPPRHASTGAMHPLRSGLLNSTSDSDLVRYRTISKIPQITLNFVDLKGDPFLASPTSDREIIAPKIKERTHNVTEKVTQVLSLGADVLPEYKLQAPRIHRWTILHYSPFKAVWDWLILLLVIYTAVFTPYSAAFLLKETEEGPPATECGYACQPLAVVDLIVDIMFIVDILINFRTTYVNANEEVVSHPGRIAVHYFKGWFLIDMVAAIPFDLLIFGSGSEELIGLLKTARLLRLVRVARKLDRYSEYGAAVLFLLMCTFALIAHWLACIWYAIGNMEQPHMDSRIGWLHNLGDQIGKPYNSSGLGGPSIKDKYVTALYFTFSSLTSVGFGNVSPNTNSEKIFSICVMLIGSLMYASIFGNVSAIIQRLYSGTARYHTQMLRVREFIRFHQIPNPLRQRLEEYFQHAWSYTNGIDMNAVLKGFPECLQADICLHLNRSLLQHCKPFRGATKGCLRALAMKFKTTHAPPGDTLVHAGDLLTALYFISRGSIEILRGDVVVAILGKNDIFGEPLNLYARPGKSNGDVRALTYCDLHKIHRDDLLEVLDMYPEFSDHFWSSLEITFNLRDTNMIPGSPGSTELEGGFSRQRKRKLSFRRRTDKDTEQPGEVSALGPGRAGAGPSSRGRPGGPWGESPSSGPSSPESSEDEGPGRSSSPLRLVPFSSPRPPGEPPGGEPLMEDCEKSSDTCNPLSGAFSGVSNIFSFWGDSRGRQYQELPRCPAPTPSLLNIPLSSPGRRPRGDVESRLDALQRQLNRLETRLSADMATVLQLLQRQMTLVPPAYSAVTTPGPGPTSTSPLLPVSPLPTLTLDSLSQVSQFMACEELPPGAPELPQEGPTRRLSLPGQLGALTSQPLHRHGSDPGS

TTR = TTR (Homo sapiens (Human), UniProt P02766); experiment: Acid-induced TTR aggregation assay; assay type: biochemical; conditions: 50 μM compound, pH 4.0, 72 h, 37° C.
Procedure: FIG. 6. […] After incubation in the presence of 50 μM Tafamidis, 50 μM Benzbromarone and 50 μM (±)-44, samples were crosslinked and subjected to SDS-PAGE followed by western blotting with TTR antibodies. The representative blot of at least three independent experiments is presented. (B, C), Bar graphs represent pixel volumes of TTR high molecular weight aggregates (B) and monomers (C). The vertical axes represent the ratio of pixel volume means±S.D. of the scanned bands on the immunoblots in arbitrary units. Statistical significance was determined by one-way ANOVA with Holm-Sidak post hoc test; *, p≤0.05; **, p≤0.01; ***, p≤0.001; ****, p≤0.0001 compare to TTR aggregation (pH 4.0)+DMSO group, #, p≤0.05; ##, p≤0.01; ###, p≤0.001; ####, p≤0.0001 compare to TTR without aggregation (pH 7.5) group.
The ability of test compounds to prevent TTR aggregation was evaluated under the acidic conditions that favor TTR aggregation and fibril formation. […] At the end of the incubation, 3.5 μl 500 mM sodium phosphate (Sigma #S5136) buffer pH=8.0 was added to each sample for neutralization and 0.6 μl 5% CHAPS (Sigma #C5070) as a detergent to prevent reassociation of protein. The cross-linking was performed by adding 1.5 μl 5% glutaraldehyde solution (Sigma #G6257). After 4 min, the reaction was stopped by the addition of 2.5 μl freshly made 5% NaBH4. Samples were subjected to TTR western blotting with prealbumin antibodies (1:500; Dako #A0002). Band intensity for TTR monomer and TTR aggregates was quantified from scanned images of the blots.

[2] = Metabolic stability and clearance in cynomolgus monkey liver microsomes; assay type: in vitro ADME; conditions: 30 minute incubation
Procedure: as §1, §2

With `Cc1cc(C(=O)O)nc(N2CCC(COc3ccccc3C(F)(F)F)C2)n1` (racemic) [Compound (±)-44, (±)-6-Methyl-2-(3-((2-(trifluoromethyl)phenoxy)methyl)pyrrolidin-1-yl)pyrimidine-4-carboxylic Acid] the solubility kinetic (Kinetic solubility assay) was 187.4 µM (≈ 71.5 µg/mL), the “serum RBP4 reduction compared to untreated Abca4−/−/Rdh8−/− mice” value (serum RBP4; 10 weeks) was 84% and the “serum RBP4 reduction compared with baseline” value (serum RBP4; week 10, Abca4−/−/Rdh8−/− mice) was 76%. For the same compound, the “Liver Microsomal Stability (% remaining at 30 min), MLM” value [1] was 95%, the IC50 (hERG) was over 30 µM and the “formation of high molecular weight TTR species” value (TTR) was “reduces the formation of high molecular weight TTR forms; also recorded: significantly reduced the formation of high molecular weight TTR species”. For the same compound, the “TTR monomer band intensities” value (TTR; vs DMSO) was “Significant increase”, the “fold reduction in formation of high molecular weight aggregates” value (TTR; vs DMSO) was 4.7 fold and the “Liver Microsomal Stability (% remaining at 30 min), cyno LM” value [2] was 103%.
